Assay results reported in publication PMC10705919 (International Journal of Molecular Sciences, 2023).

Target: T1, TRPV4 (Canis lupus, UniProt A0A8I3PAV3)
T1 construct: endogenous channel in MDCK cells
Assay: whole-cell patch clamp, block of GSK1016790A-evoked currents in MDCK cells
Assay type: cell-based

T1 sequence (A0A8I3PAV3 1-828): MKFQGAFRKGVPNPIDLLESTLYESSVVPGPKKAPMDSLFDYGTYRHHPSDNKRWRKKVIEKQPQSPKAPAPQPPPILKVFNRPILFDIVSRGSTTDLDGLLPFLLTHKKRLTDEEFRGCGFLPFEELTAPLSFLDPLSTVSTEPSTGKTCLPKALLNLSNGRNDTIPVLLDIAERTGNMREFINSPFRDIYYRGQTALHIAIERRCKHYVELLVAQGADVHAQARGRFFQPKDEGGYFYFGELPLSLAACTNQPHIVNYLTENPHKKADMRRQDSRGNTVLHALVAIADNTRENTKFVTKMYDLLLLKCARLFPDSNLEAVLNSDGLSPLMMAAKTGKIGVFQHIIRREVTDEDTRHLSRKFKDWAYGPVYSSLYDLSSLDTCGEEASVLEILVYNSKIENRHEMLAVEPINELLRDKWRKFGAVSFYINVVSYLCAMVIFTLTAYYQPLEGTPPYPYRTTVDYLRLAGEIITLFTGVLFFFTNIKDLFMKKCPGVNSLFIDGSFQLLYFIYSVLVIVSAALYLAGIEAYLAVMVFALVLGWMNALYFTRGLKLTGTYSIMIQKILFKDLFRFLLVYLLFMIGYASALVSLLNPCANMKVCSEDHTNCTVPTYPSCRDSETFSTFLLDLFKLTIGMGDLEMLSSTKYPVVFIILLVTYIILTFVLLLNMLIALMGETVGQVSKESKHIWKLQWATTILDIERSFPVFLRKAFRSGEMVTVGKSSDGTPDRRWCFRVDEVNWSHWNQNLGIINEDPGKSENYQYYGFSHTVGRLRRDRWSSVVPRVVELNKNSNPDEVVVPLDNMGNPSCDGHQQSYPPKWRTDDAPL

**Q.** How did the “whole-cell patch clamp, block of GSK1016790A-evoked currents in MDCK cells” value turn out when `Cc1c(C(=O)Nc2cccc(C(F)(F)F)c2)cc(-c2ccccc2)n1CCCN1CCOCC1` [HC, HC-067047] was run?
**A.** the addition of HC significantly decreases the transient enhancement of dIm induced by GSK alone
